One data set deals with 3T6 cells. As to the kind of experiment: 3T6 cells: inhibition of hydroxylation of prolyl residues within collagen (test (c)). It counts as cell-based. To be noted: hydroxylation of prolyl residues in collagen. Here is the method:
(c) An in vitro assay involving incubating cultures of 3T6 cells with a test compound and [^14C]- and [^3H]-labelled L-proline, and measuring the inhibition of hydroxylation at the 4-trans-position of prolyl residues within the available collagen using the procedure described by T. J. Franklin and M. Hitchen (Biochem. J., 261:127-130 (1989)).

The target in a further data set is T1, prolyl 4-hydroxylase (Gallus gallus, UniProt P16924).
T1 construct: a highly purified preparation of prolyl 4-hydroxylase; from tissue; chick embryos according to the cited method (own knowledge)
T1 sequence (P16924 1-516): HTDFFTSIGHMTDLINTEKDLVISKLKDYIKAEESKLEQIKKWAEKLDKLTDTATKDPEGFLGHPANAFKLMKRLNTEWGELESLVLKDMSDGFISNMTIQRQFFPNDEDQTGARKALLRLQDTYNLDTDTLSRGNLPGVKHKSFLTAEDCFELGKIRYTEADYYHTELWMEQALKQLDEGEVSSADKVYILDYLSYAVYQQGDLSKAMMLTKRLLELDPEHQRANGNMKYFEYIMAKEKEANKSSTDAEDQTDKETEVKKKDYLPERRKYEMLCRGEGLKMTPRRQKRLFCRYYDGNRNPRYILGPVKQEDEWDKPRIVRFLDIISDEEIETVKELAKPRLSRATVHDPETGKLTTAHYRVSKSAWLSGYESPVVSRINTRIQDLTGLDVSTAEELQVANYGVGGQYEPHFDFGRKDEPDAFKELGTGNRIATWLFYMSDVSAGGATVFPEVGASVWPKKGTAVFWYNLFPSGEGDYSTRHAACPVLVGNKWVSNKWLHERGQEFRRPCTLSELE
T1 sequence (P09102 23-515 partner): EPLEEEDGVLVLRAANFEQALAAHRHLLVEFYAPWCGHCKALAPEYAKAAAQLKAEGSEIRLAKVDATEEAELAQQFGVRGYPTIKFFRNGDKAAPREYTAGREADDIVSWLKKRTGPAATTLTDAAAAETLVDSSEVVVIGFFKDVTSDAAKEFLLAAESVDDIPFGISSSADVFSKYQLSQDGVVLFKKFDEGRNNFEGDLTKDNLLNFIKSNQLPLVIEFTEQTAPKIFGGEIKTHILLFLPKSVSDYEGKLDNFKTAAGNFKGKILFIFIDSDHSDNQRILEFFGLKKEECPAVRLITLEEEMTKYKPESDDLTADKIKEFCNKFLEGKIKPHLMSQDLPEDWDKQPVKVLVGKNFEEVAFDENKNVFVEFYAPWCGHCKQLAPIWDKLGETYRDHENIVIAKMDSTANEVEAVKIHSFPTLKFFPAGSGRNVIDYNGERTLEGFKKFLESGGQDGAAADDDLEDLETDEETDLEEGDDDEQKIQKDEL
As to the kind of experiment: in vitro enzyme assay, cell free, highly purified prolyl 4-hydroxylase (test (a)). It counts as biochemical. Here is the method: (a) An in vitro enzyme assay system, which assesses the inhibitory properties of a test compound in a cell free system using a highly purified preparation of prolyl 4-hydroxylase. The enzyme preparation was obtained using the method described by N. Kedersha and R. Berg (Collagen Related Research, 1:345 (1981)) and the activity of a test compound was measured using the method described by C. J. Cunliffe, T. J. Franklin and R. Gaskell (Biochem. J., 240:617 (1986)).

In data set [1] the test system is embryonic chick tendon cells. Briefly: embryonic chick tendon cells: inhibition of hydroxylation of prolyl residues within collagen (test (b)). It counts as cell-based. As to conditions: Gallus gallus, hydroxylation of prolyl residues in collagen. Here is the method:
(b) An in vitro assay system involving incubating embryonic chick tendon cells in the presence of a test compound and measuring the inhibition of hydroxylation at the 4-position of prolyl residues within the available collagen. The embryonic chick tendon cells were prepared from the leg tendons of 17-day chick embryos using the method of P. Dehm and D. Prockop (Biochem. Biophys Acta, 240:358 (1971)). The cells were incubated in the presence of [^14C]- and [^3H]-labelled L-proline and the extent of hydroxylation at the 4-trans-position of the prolyl residues within the collagen was determined using the procedure described by T. J. Franklin and M. Hitchen (Biochem. J, 261:127-130 (1989)).

Data set [2] concerns collagen within the uteri of immature female rats. Briefly: in vivo inhibition of prolyl hydroxylation within collagen in uteri of immature female rats (test (d)). To be noted: Rattus norvegicus, po; 50 mg/kg orally, compound dosed 2 hours before proline administration. The protocol: (d) An in vivo assay involving the measurement of the inhibition by a test compound of hydroxylation at the 4-trans-position of prolyl residues within collagen within the uteri of immature (20-21 day) female rats. The test compounds were administered either orally or intraperitoneally to the rats in which uterine collagen synthesis had been stimulated by the subcutaneous administration of a solution of oestradiol benzoate (0.5 μg on each of two successive days) in arachis […] oil. The rats were dosed with 5 μCuries of [^14C]-L-proline and the uteri were taken 2 hours after the dosing of the radiolabelled proline and sonicated. Collagen was extracted by treatment of the tissue with water at 120° C. for 1 hour in an autoclave and hydrolysed by treatment with 6N hydrochloric acid for 18 hours at reflux temperature. The proline and 4-hydroxyproline residues were separated by column chromatography on a reversed-phase Spherisorb S5ODS1 column using as eluent a 89.9:10:0.1 v/v mixture of water:isopropanol:trifluoroacetic acid to which 0.3% w/v of sodium dodecylsulphate had been added. The ratio of radioactivity found in each of the proline and 4-hydroxyproline fractions was determined by liquid scintillation counting to allow the measurement of the inhibition of hydroxylation by a test compound.

A word on the melting point: it is the temperature, or range, at which the solid turns liquid. Broadly, the IC50 is the concentration at which inhibition is half-maximal. Read a low IC50 as inhibition by little substance. The inhibition is the change of the read-out against control, counted positive when it falls. Higher therefore signals a response far below the control.

Compound `CCCCN(CC)C(=O)c1cnc2c3c(ccc2c1)C(=O)C(C(=O)O)C=N3` (centres unmarked) [Example 2, 8-(N-butyl-N-ethylcarbamoyl)-3-carboxy-4-oxo-3,4-dihydro-1,10-phenanthroline] came in with a melting point of 236 to 237 °C. Moreover, the IC50 in the data set on 3T6 cells worked out at 5.4 µM. At prolyl 4-hydroxylase, this compound came in with an IC50 of 0.4 µM. For the same compound, the IC50 in data set [1] was determined as 1.2 µM. For the same compound, the inhibition at 50 mg/kg in data set [2] worked out at 46%.

The values above are taken from US20010001101A1, “Phenanthroline derivatives” (Zeneca Limited, priority 1997, published 2001).
